Experimental data as given in the NIST ThermoML archive (doi:10.1021/je0497247).

Experiments:
[1] = 100 kPa, Liquid; for viscosity: Capillary tube (Ostwald / Ubbelohde) method; for mass density: Pycnometric method
[2] = wn = mass fraction of the nth substance listed; settings: 100 kPa, Liquid; for mass density: Pycnometric method; for viscosity: Capillary tube (Ostwald / Ubbelohde) method

O=C(O)c1ccccc1 [benzoic acid]
[1]
Settings | mass density [kg/m3] | thermal conductivity [W/m/K] | viscosity [mPa·s]
400.3 K | – | – | 1.372
401.3 K | 1089.5 | – | –
406.8 K | – | 0.139 | –
409.3 K | – | – | 1.238
410.3 K | 1080.2 | – | –
418.3 K | – | – | 1.117
419.3 K | 1069.8 | – | –
424.4 K | – | 0.137 | –
427.2 K | – | – | 1.026
428.2 K | 1060.2 | – | –
432.1 K | 1055 | – | 0.953
444.9 K | – | 0.134 | –
447.1 K | 1036 | – | 0.802
465.1 K | – | 0.132 | –

O=C(O)c1ccccc1 [benzoic acid] + O
[2]
Settings | mass density [kg/m3] | thermal conductivity [W/m/K] | viscosity [mPa·s]
373 K, w1 = 0.1 | – | 0.659 | –
374.6 K, w1 = 0.05 | – | 0.671 | –
379.1 K, w1 = 0.1 | 974.1 | – | –
379.6 K, w1 = 0.05 | 963.7 | – | –
380.6 K, w1 = 0.1 | – | – | 0.319
381.1 K, w1 = 0.05 | – | – | 0.288
391 K, w1 = 0.2 | – | 0.649 | –
392.9 K, w1 = 0.1 | 961 | – | –
393.6 K, w1 = 0.05 | – | 0.675 | –
393.6 K, w1 = 0.4 | – | 0.575 | –
393.9 K, w1 = 0.8 | – | 0.199 | –
394.2 K, w1 = 0.1 | – | 0.662 | –
394.6 K, w1 = 0.05 | 951.9 | – | –
395.9 K, w1 = 0.1 | – | – | 0.272
397.6 K, w1 = 0.05 | – | – | 0.256
400.3 K, w1 = 0.2 | 963.5 | – | –
400.3 K, w1 = 1 | – | – | 1.372
400.8 K, w1 = 0.4 | 988.8 | – | –
400.9 K, w1 = 0.8 | 1050.1 | – | –
401.3 K, w1 = 1 | 1089.5 | – | –
401.6 K, w1 = 0.6 | 1013.8 | – | –
401.8 K, w1 = 0.2 | – | – | 0.329
402.3 K, w1 = 0.4 | – | – | 0.501
402.4 K, w1 = 0.8 | – | – | 0.931
403.1 K, w1 = 0.6 | – | – | 0.708
406.8 K, w1 = 1 | – | 0.139 | –
409.2 K, w1 = 0.2 | – | 0.65 | –
409.2 K, w1 = 0.4 | – | 0.571 | –
409.3 K, w1 = 1 | – | – | 1.238
410.3 K, w1 = 1 | 1080.2 | – | –
410.9 K, w1 = 0.1 | – | 0.67 | –
412.1 K, w1 = 0.1 | 945.4 | – | –
413.2 K, w1 = 0.8 | – | 0.197 | –
413.3 K, w1 = 0.05 | – | 0.676 | –
413.4 K, w1 = 0.05 | 935.5 | – | –
413.8 K, w1 = 0.2 | 950.8 | – | –
414.8 K, w1 = 0.4 | 975.1 | – | –
414.8 K, w1 = 0.8 | 1035 | – | –
415.1 K, w1 = 0.1 | – | – | 0.236
415.9 K, w1 = 0.6 | 999.2 | – | –
416.4 K, w1 = 0.05 | – | – | 0.219
416.8 K, w1 = 0.2 | – | – | 0.274
417.8 K, w1 = 0.4 | – | – | 0.383
418 K, w1 = 0.2 | – | 0.651 | –
418.3 K, w1 = 1 | – | – | 1.117
418.8 K, w1 = 0.8 | – | – | 0.69
418.9 K, w1 = 0.6 | – | – | 0.547
419.3 K, w1 = 1 | 1069.8 | – | –
420.1 K, w1 = 0.4 | – | 0.549 | –
424.4 K, w1 = 1 | – | 0.137 | –
427.2 K, w1 = 1 | – | – | 1.026
428.2 K, w1 = 1 | 1060.2 | – | –
428.4 K, w1 = 0.1 | 929.6 | – | –
430.1 K, w1 = 0.4 | – | 0.568 | –
431.3 K, w1 = 0.8 | 1018.8 | – | –
431.4 K, w1 = 0.1 | – | – | 0.211
431.9 K, w1 = 0.2 | 933.7 | – | –
432.1 K, w1 = 1 | 1055 | – | 0.953
432.6 K, w1 = 0.4 | 955 | – | –
433.1 K, w1 = 0.05 | 915.2 | – | –
433.1 K, w1 = 0.8 | – | 0.192 | –
433.9 K, w1 = 0.6 | 981.1 | – | –
434.3 K, w1 = 0.8 | – | – | 0.542
434.9 K, w1 = 0.2 | – | – | 0.234
435.6 K, w1 = 0.4 | – | – | 0.309
436.1 K, w1 = 0.05 | – | – | 0.194
436.9 K, w1 = 0.6 | – | – | 0.399
444.9 K, w1 = 0.1 | 912.6 | – | –
444.9 K, w1 = 1 | – | 0.134 | –
447.1 K, w1 = 1 | 1036 | – | 0.802
447.9 K, w1 = 0.1 | – | – | 0.194
449.4 K, w1 = 0.8 | 1000.5 | – | –
450.8 K, w1 = 0.05 | 896.3 | – | –
451 K, w1 = 0.8 | – | 0.188 | –
452.1 K, w1 = 0.4 | 932 | – | –
452.4 K, w1 = 0.2 | 912 | – | –
452.4 K, w1 = 0.8 | – | – | 0.438
453.4 K, w1 = 0.6 | 959.5 | – | –
453.8 K, w1 = 0.05 | – | – | 0.177
455.1 K, w1 = 0.4 | – | – | 0.263
455.4 K, w1 = 0.2 | – | – | 0.206
456.4 K, w1 = 0.6 | – | – | 0.334
465.1 K, w1 = 1 | – | 0.132 | –
